Measured values from patent US20260035403A1, “NUCLEOSIDE LINE-1 INHIBITORS” (TRANSPOSON THERAPEUTICS, INC., priority 2022, published 2026).

Tested on: human LINE-1
Assay: Human LINE-1 retrotransposition assay (HeLa cell-based dual-luciferase reporter)
Conditions: Human LINE-1 activity inhibition, HeLa cells, reporter plasmid pYX017, Firefly/Renilla, 72 h incubation
Method: Representative Compounds of the Disclosure were tested for inhibition of retrotransposition activity of human LINE-1 in HeLa cells according to the following procedure.
HeLa cervical cancer cells were cultivated at 37° C. in a humidified 5% CO2 incubator in Dulbecco's Modified Eagle's Medium (DMEM)—high glucose, with 4500 mg/L glucose, L-glutamine, sodium pyruvate and sodium bicarbonate (Sigma), supplemented with 10% of heat inactivated fetal bovine serum (Thermo Fisher).
Assays were performed using reporter plasmid pYX017 as described (Xie, et al., 2011) with several modifications. The reporter assay was performed in 96-well white optical bottom plates. HeLa cells were seeded in wells 24 h prior to transfection and compound treatment so that cells were approximately 30% confluent on the day of transfection. Different cell plating densities were tested and a density of 2×10^3 cells was determined to be optimal.
Compounds were resuspended in DMSO. Serial dilutions (1:3) were prepared in DMSO. Medium containing different concentrations of the compounds were prepared by adding 2 μl of the compound dilution to 1 ml of the culture medium. The final concentration of DMSO in the medium was 0.2%.
FuGENE® HD transfection reagent (Promega, E2311, Lot 382574 and Lot 397842) was used to transfect the plasmids into the cells. The transfection reagent: DNA mixture was prepared in OpiMEM (Thermo Fisher) according to manufacturer's instructions. Different ratios of transfection reagent to DNA were tested and a ratio of 3:1 was determined to be optimal. Culture medium was removed from the cells and discarded. The transfection reagent: DNA mixture (5 μl) was mixed with the compound containing medium (100 μl/well) and this was added onto the cells of each well. Cells were incubated at 37° C./5% CO2 for different incubation time. A 72 h incubation time was determined to be optimal.
Luciferase reporter activity was quantified with the Dual-Luciferase® Reporter Assay System (Promega) according to manufacturer's instructions for multiwell plates except that cells were lysed directly on the multiwell plate with 30 μl of the passive lysis buffer (PLB) for 20 min at room temperature, with gentle shaking to ensure complete cell lysis.
Firefly and Renilla luciferase signals were measured using a SpectraMax i3× Multi-Mode Microplate Reader. Integration times of 100 ms and 10 ms were used to measure the Firefly and Renilla signals respectively. Relative L1 activity is calculated as Firefly/Renilla*1000 or Firefly/Renilla*10,000. Dose response inhibition data were fit to a four parameter logistic equation using non-linear regression (using Graphpad Prism 8), to determine IC50 values for each inhibitor.

SMILES	IC50 (Homo sapiens, HeLa, 72 h) [µM]	IC50 [µM]
C#C[C@@]1(CO)C=C[C@H](n2cc(OC(F)F)c(=O)[nH]c2=O)O1 [compound 57, 5-(difluoromethoxy)-1-((2R,5R)-5-ethynyl-5-(hydroxymethyl)-2,5-dihydrofuran-2-yl)pyrimidine-2,4(1H,3H)-dione]	> 50	
C#C[C@@]1(CO)C=C[C@H](n2cc(CC)c(=O)[nH]c2=O)O1 [compound 35, 5-ethyl-1-((2R,5R)-5-ethynyl-5-(hydroxymethyl)-2,5-dihydrofuran-2-yl)pyrimidine-2,4(1H,3H)-dione]	> 50	
Cc1cn([C@H]2C=C[C@@](C)(CO)O2)c(=O)[nH]c1=O [compound 21, 1-((2R,5S)-5-(hydroxymethyl)-5-methyl-2,5-dihydrofuran-2-yl)-5-methylpyrimidine-2,4(1H,3H)-dione]	> 50	
CC#C[C@@]1(CO)O[C@@H](n2cc(C)c(=O)[nH]c2=O)C[C@H]1O [compound 24, 1-((2R,4R,5S)-4-hydroxy-5-(hydroxymethyl)-5-(prop-1-yn-1-yl)tetrahydrofuran-2-yl)-5-methylpyrimidine-2,4(1H,3H)-dione]	> 50	
CC[C@]1(CO)O[C@@H](n2cnc3c(N)nc(Cl)nc32)[C@H](O)[C@@H]1O [compound 195, (2R,3S,4R,5R)-5-(6-amino-2-chloro-9H-purin-9-yl)-2-ethyl-2-(hydroxymethyl)tetrahydrofuran-3,4-diol]	> 50	
C#C[C@@]1(CO)C[C@@H](Sc2ccc(C)cc2)[C@H](n2cc(C)c(=O)[nH]c2=O)O1 [compound 26, 1-((2R,3R,5R)-5-ethynyl-5-(hydroxymethyl)-3-(p-tolylthio)tetrahydrofuran-2-yl)-5-methylpyrimidine-2,4(1H,3H)-dione]	> 50	
C#C[C@@]1(CO)C=C[C@H](n2cnc3cncnc32)O1 [compound 38, ((2R,5R)-2-ethynyl-5-(9H-purin-9-yl)-2,5-dihydrofuran-2-yl)methanol]	> 50	
CC[C@]1(CO)O[C@@H](n2cnc3c(N)nc(Cl)nc32)C[C@@H]1O [compound 190, (2R,3S,5R)-5-(6-amino-2-chloro-9H-purin-9-yl)-2-ethyl-2-(hydroxymethyl)tetrahydrofuran-3-ol]	~50	
CC[C@]1(CO)O[C@@H](n2cnc3c(N)nc(Cl)nc32)[C@@H](F)[C@@H]1O [compound 182, (2R,3R,4S,5R)-5-(6-amino-2-chloro-9H-purin-9-yl)-2-ethyl-4-fluoro-2-(hydroxymethyl)tetrahydrofuran-3-ol]		293
C#C[C@@]1(CO)C=C[C@H](n2ccc3c(=O)[nH]cnc32)O1 [compound 34, 7-((2R,5R)-5-ethynyl-5-(hydroxymethyl)-2,5-dihydrofuran-2-yl)-3,7-dihydro-4H-pyrrolo[2,3-d]pyrimidin-4-one]	> 50	
C#C[C@@]1(CO)C=C[C@H](n2cc(C(F)(F)F)c(=O)[nH]c2=O)O1 [compound 28, 1-((2R,5R)-5-ethynyl-5-(hydroxymethyl)-2,5-dihydrofuran-2-yl)-5-(trifluoromethyl)pyrimidine-2,4(1H,3H)-dione]	> 12.5	
C#C[C@]1(CO)OC(n2cc(C3CC3)c(=O)[nH]c2=O)C[C@@H]1O (stereo partly drawn) [compound 52, 5-cyclopropyl-1-((4S,5R)-5-ethynyl-4-hydroxy-5-(hydroxymethyl)tetrahydrofuran-2-yl)pyrimidine-2,4(1H,3H)-dione]	> 50	
C#C[C@@]1(CO)C=C[C@H](n2cnc3c(OC)nc(Cl)nc32)O1 [compound 41, ((2R,5R)-5-(2-chloro-6-methoxy-9H-purin-9-yl)-2-ethynyl-2,5-dihydrofuran-2-yl)methanol]	> 50	
C#C[C@@]1(CO)C[C@@H](Sc2ccc(C)cc2)[C@H](n2ccc(=O)[nH]c2=O)O1 [compound 31, 1-((2R,3R,5R)-5-ethynyl-5-(hydroxymethyl)-3-(p-tolylthio)tetrahydrofuran-2-yl)pyrimidine-2,4(1H,3H)-dione]	> 50	
C#C[C@@]1(CO)C=C[C@H](n2cnc3c(N)ncnc32)O1 [compound 14, ((2R,5R)-5-(6-amino-9H-purin-9-yl)-2-ethynyl-2,5-dihydrofuran-2-yl)methanol]	50	
Cc1cn([C@H]2C=C[C@](CO)(C3CC3)O2)c(=O)[nH]c1=O [compound 47, 1-((2R,5S)-5-cyclopropyl-5-(hydroxymethyl)-2,5-dihydrofuran-2-yl)-5-methylpyrimidine-2,4(1H,3H)-dione]	> 25	
CC[C@]1(CO)O[C@@H](n2cnc3c(N)ncnc32)[C@H](O)[C@@H]1O [compound 196, (2R,3S,4R,5R)-5-(6-amino-9H-purin-9-yl)-2-ethyl-2-(hydroxymethyl)tetrahydrofuran-3,4-diol]	> 50	
C#C[C@@]1(CO)C=C[C@H](n2cc(F)c(=O)[nH]c2=O)O1 [compound 22, 1-((5R)-5-ethynyl-5-(hydroxymethyl)-2,5-dihydrofuran-2-yl)-5-fluoropyrimidine-2,4(1H,3H)-dione]		20.1
CC[C@]1(CO)O[C@@H](n2cc(C#N)c(=O)[nH]c2=O)C[C@@H]1O [Cpd. No. 98, 1-((2R,4S,5R)-5-ethyl-4-hydroxy-5-(hydroxymethyl)tetrahydrofuran-2-yl)-4-hydroxy-2-oxo-1,2-dihydropyrimidine-5-carbonitrile]	> 25	

More lines, main results first:

IC50 (Homo sapiens, HeLa, 72 h) [µM]	SMILES	IC50 [µM]
0.15	CC[C@]1(CO)O[C@@H](n2cc(Br)c(N)nc2=O)C[C@@H]1O [compound 105, 4-amino-5-bromo-1-((2R,4S,5R)-5-ethyl-4-hydroxy-5-(hydroxymethyl)tetrahydrofuran-2-yl)pyrimidin-2(1H)-one]	
4.9	C=C[C@]1(CO)O[C@H](Nc2[nH]c(=O)ncc2Br)C[C@@H]1O [compound 104, 5-bromo-6-(((2S,4S,5R)-4-hydroxy-5-(hydroxymethyl)-5-vinyltetrahydrofuran-2-yl)amino)pyrimidin-2(1H)-one]	
0.004	C=C[C@]1(CO)OC(n2cc(Br)c(N)nc2=O)C[C@@H]1O (stereo partly drawn) [compound 67, 4-amino-5-bromo-1-((4S,5R)-4-hydroxy-5-(hydroxymethyl)-5-vinyltetrahydrofuran-2-yl)pyrimidin-2(1H)-one]	
25.5	C#C[C@]1(CO)O[C@H](n2cc(C)c(=O)[nH]c2=O)C[C@@H]1O [compound 50, 1-((2S,4S,5R)-5-ethynyl-4-hydroxy-5-(hydroxymethyl)tetrahydrofuran-2-yl)-5-methylpyrimidine-2,4(1H,3H)-dione]	
0.417	CNc1nc(N)nc2c1ncn2[C@H]1C[C@H](O)[C@](CO)(CF)O1 [compound 166, (2R,3S,5R)-5-(2-amino-6-(methylamino)-9H-purin-9-yl)-2-(fluoromethyl)-2-(hydroxymethyl)tetrahydrofuran-3-ol]	
3.17	Nc1nc(=O)n([C@H]2C[C@@H]3OC=C[C@]3(CO)O2)cc1F [compound 139, 4-amino-5-fluoro-1-((2R,3aS,6aR)-6a-(hydroxymethyl)-2,3,3a,6a-tetrahydrofuro[3,2-b]furan-2-yl)pyrimidin-2(1H)-one]	
7.43	C#C[C@]1(CO)OC(n2cnc3c(OC)ncnc32)C[C@@H]1O (stereo partly drawn) [compound 61, (2R,3S)-2-ethynyl-2-(hydroxymethyl)-5-(6-methoxy-9H-purin-9-yl)tetrahydrofuran-3-ol]	
6.9	CC[C@]1(CO)O[C@@H](n2cc(Br)c(=O)[nH]c2=O)C[C@@H]1O [Cpd. No. 2, 5-bromo-1-((2R,4S,5R)-5-ethyl-4-hydroxy-5-(hydroxymethyl)tetrahydrofuran-2-yl)-4-hydroxypyrimidin-2(1H)-one]	
15	C#C[C@]1(CO)O[C@@H](N2C=NC3C(NC)=NC(F)=NC32)C[C@@H]1O (stereo partly drawn) [compound 93, (2R,3S,5R)-2-ethynyl-5-(2-fluoro-6-(methylamino)-4,5-dihydro-9H-purin-9-yl)-2-(hydroxymethyl)tetrahydrofuran-3-ol]	
24	C#C[C@@]1(COC)C=C[C@H](n2cc(C)c(=O)[nH]c2=O)O1 [compound 106, 1-((2R,5R)-5-ethynyl-5-(methoxymethyl)-2,5-dihydrofuran-2-yl)-5-methylpyrimidine-2,4(1H,3H)-dione]	
7.3	COC[C@@H]1C=C[C@H](n2cc(C)c(=O)[nH]c2=O)O1 [compound 107, 1-((2R,5S)-5-(methoxymethyl)-2,5-dihydrofuran-2-yl)-5-methylpyrimidine-2,4(1H,3H)-dione]	
1.94	CC[C@]1(CO)O[C@@H](n2cnc3c(N)ncnc32)[C@@H](O)[C@@H]1O [compound 194, (2R,3S,4S,5R)-5-(6-amino-9H-purin-9-yl)-2-ethyl-2-(hydroxymethyl)tetrahydrofuran-3,4-diol]	
